Assay results from patent publication US11980616B2, “Treating liver disease by selectively eliminating senescent cells” (Buck Institute for Research on Aging, priority 2014, dated 2024).

How the values were obtained:
[1] = tested on: senescent IMR90 cells; assay: CellTiter-Glo cell viability assay, senescent IMR90; format: cell-based, human; conditions: IMR90
Experimental: To determine whether ABT-263 is selectively toxic to senescent cells compared to non-senescent cells, a cell viability assay was used to assess cell survival following treatment with ABT-263. IMR90 cells (human primary lung fibroblasts (IMR90) (IMR-90 (ATCC® CCL-186™, Manassas, Virginia) were seeded in six well plates, and cells were induced to senescence with 10 Gy of ionizing radiation (IR) (Day 0). The media was refreshed every 3 days. The senescent phenotype is allowed to develop for 7 days at which point a cell count was made to determine the baseline number of cells followed by seeding into 96-well plates. On day 8, the senescent cells (irradiated) and the non-senescent cells (the non-radiated cells), were exposed to serial dilutions of ABT-263 for a period of 3 days. ABT-263 concentrations ranged from 0.5 nM to 3 μM. Each condition was seeded in triplicate.
After three days of treatment (Day 11), cells were assayed for cell survival using the commercially available CellTiter-Glo® (CTG) Luminescent Cell Viability Assay (Promega Corporation, Madison, Wisconsin). The assay determines the number of viable cells in culture based on the quantitation of ATP present which is an indicator of metabolically active cells.
The experiments performed for assessing the effect of these other Bcl-2 inhibitors were performed essentially as described in Example 7. Cells were exposed to ABT-199 at serial dilution concentrations ranging from 15 nM to 100 μM (FIGS. 26 and 27). Cells were exposed to Obatoclax at concentrations ranging from 1.4 nM to 9 μM (FIG. 28).
IMR90 cells were induced to senescence by irradiation as described in Example 7. The irradiated IMR90 cells and non-senescent IMR90 cells were then exposed to a compound called ML214 that is a Bcl-2A1 specific inhibitor.
The effect of ABT-263 in combination with the Akt inhibitor MK-2206 was tested for selective toxicity of senescent cells compared to non-senescent cells in IMR90 cells. The methods of Example 7 were repeated except that cell cultures were exposed to 10 nM MK-2206 (Selleckem, Cat #S1078) in addition to serial dilutions of ABT-263.

[2] = tested on: p16-3MR transgenic mice; assay: Paclitaxel-induced senescence in p16-3MR mice; format: in vivo, mouse; conditions: 20 mg/kg three times every two days
Experimental: Paclitaxel induces senescence and SASP in p16-3MR transgenic mice. Groups of mice (n=4) were treated three times every two days with 20 mg/kg paclitaxel or vehicle. […] The level of mRNA in skin was determined for each of the target genes: p16, 3MR transgene, and IL-6.

Row | Compound | Selective targeting (killing) of senescent cells over non-senescent cells [1] | Senescence shown by luminescence [2] | 3MR transgene mRNA in skin ([2]; vs vehicle) | IL-6 mRNA in skin ([2]; vs vehicle) | p16 mRNA in skin ([2]; vs vehicle)
1 | CC1(C)CCC(CN2CCN(c3ccc(C(=O)NS(=O)(=O)c4ccc(NCC5CCOCC5)c([N+](=O)[O-])c4)c(Oc4cnc5[nH]ccc5c4)c3)CC2)=C(c2ccc(Cl)cc2)C1 [ABT-199] | inability |  |  |  | 
2 | CC(=O)O[C@H]1C(=O)[C@@]2(C)[C@H]([C@H](OC(=O)c3ccccc3)[C@]3(O)C[C@H](OC(=O)[C@H](O)[C@@H](NC(=O)c4ccccc4)c4ccccc4)C(C)=C1C3(C)C)[C@]1(OC(C)=O)CO[C@@H]1C[C@@H]2O [paclitaxel] |  | Senescence was observed | increased | increased | increased
